Measurements published in paper PMC6102691, “Identification of a novel ligand for the ATAD2 bromodomain with selectivity over BRD4 through a fragment growing approach” (Organic & Biomolecular Chemistry, 2018).

Assays:
BRD4 = BRD4 (Homo sapiens, UniProt O60885); experiment: Surface plasmon resonance (SPR) direct binding to BRD4; details: for Kd: SPR format assay, Kd above the top concentration projected by extrapolation (extrapolated Rmax from control compound)
Procedure: Surface plasmon resonance (SPR) was used to assess the direct binding of the fragments and provide Kd values for binding to both ATAD2 and BRD4. SPR can yield artefactual data where the concentration of a small-molecular analyte exceeds ∼250 μM, and accordingly, this was the highest concentration used in the assays. Where the Kd exceeded this limit, projected Kds were determined by extrapolation, using the observed response units for compound binding (RU) relative to the molecular weight of a known control compound.[23]
(§1) 12.5 μM using an Echo 550 (Labcyte). Each well was backfilled to a final volume of 200 nl (for the […]), resulting in final DMSO concentrations of 2 %. 5 μl of GST-ATAD2 was added to each well and incubated for 30mins resulting in a final concentration of 5 nM.
(§2) 5μl of biotinylated-histone H4 peptide (SGRG-K(Ac)-GG-K(Ac)-GLG-K(Ac)-GGA-K(Ac)- RHRKVGG-K(Biotin)) was then added to each well at a final concentration of 500nM. Both GST-ATAD2 and peptide were diluted in buffer B (50 mM Tris pH 7.5, […], 1 mM DTT, 100 μg/ml bovine serum albumin (BSA)). The plate was then incubated at room temperature for 30mins and then 5 μl LanthaScreen® Tb-anti-GST Antibody (Life Technologies) at final concentration of 5 nM was added to each well and incubated for an additional 30mins. 5 μl of streptavidin-XLL65 (Cisbio Assay) at a final concentration of […] was added to each assay well. Both dyes were diluted in buffer C (50 mM Tris pH 7.5, […], 100 μg/ml BSA). The plate was incubated at room temperature for a further 30mins and then read using a PheraStar FS (BMG Labtech). The data were analysed using Graphpad […]
(§3) 1.4 Surface Plasmon Resonance (SPR).
(§4) SPR-based ligand binding assays were performed using Biacore S200 (GE Healthcare) at 25 °C using single cycle affinity.
(§5) ATAD2N1064A was achieved using standard amine coupling on a CM5 chip surface. The surface was prepared through activation with EDC/NHS, followed by injection of 10 µg/ml of respective proteins until target level 8000 RU was reached. The surface was then quenched using 1 M Ethanolamine and washed with running buffer 10 mM HEPES, 150mM NaCl, 0.01% TWEEN20, 0.5 mM TCEP and 1% DMSO with a flow rate of […]. Compounds were injected in a dose-response manner (8 concentration points ranging from 0-200 µM) in series across the control, ATAD2, BRD4, and ATAD2-N1064A flow cells using solvent correction to account for bulk refractive index changes. The reference control channel was subtracted […]
(§6) from immobilised channels and dose-response data was fitted using a steady state constant Rmax 1:1 binding model, using an extrapolated Rmax determined from a binding control compound in those cases where the extrapolated Kd value was greater than the top concentration used in the experiment (200 µM). K d values are reported to the nearest 100th of micromolar. 1 […]
(§7) Crystallisation was performed at 20 °C using the hanging drop vapor diffusion method.
(§8) Crystals of ATAD2 were grown by mixing 2µl ATAD2 at 7mg/ml and 2µl precipitant containing 0.1 M BIS-TRIS pH 6.5 and 2.0 M ammonium sulfate. Crystals were harvested in a diffusion solution containing 10 mM compound, 5% DMSO, 25 mM HEPES pH 7.5, 75 mM NaCl, 50 mM BIS-TRIS pH 6.5 and 1.0 M Ammonium Sulfate for 48hrs. Prior to data collection the crystals were cryo protected with the addition of 25% (v/v) ethylene glycol to the diffusion solution. X-ray diffraction data were recorded at Diamond Light Source (Harwell, Oxfordshire, UK). Data processing was carried out using XDS, POINTLESS/AIMLESS2 and other programs of the CCP4i suite3 run through the CCP4i2 gui. Structures were solved by molecular replacement using PHASER4 and pdb 3DAI as a starting model. REFMAC5 was employed for refinement, and model building was performed using COOT6. PDBs were deposited within the protein database www.pdb.org using accession codes: 11 XXXX, 15a […]

[1] = target: T1, GST-ATAD2 bromodomain / biotinylated acetylated histone H4 peptide (Homo sapiens, UniProt Q6PL18); experiment: ATAD2-histone displacement HTRF assay; format: binding; details: for ATAD2 inhibition in HTRF, in words: highest concentration assayed 1000 μM; for IC50: HTRF format assay, highest concentration 1000 μM; for ATAD2 LE: Ligand efficiency (LE) = 1.4(–log IC50)/N, N = number of non-hydrogen atoms, from HTRF IC50
T1 construct: 981-1108; made in house; host or cells: Escherichia coli BL21 (DE3) pLysS, plasmid pGEX-6P-1
T1 sequence (Q6PL18 981-1108): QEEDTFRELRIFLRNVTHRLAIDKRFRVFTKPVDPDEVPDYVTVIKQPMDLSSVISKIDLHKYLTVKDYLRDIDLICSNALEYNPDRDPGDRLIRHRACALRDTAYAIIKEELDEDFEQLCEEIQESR
Procedure: (§9) Surface plasmon resonance (SPR) was used to assess the direct binding of the fragments and provide Kd values for binding to both ATAD2 and BRD4. SPR can yield artefactual data where the concentration of a small-molecular analyte exceeds ∼250 μM, and accordingly, this was the highest concentration used in the assays.
1.1 Protein Purification.
The ATAD2 bromodomain 981-1108 was expressed with an N-terminal GST fusion from the pGEX-6P-1 plasmid. The plasmids were transformed into BL21 (DE3) pLysS Escherichia coli (Novagen) and then the cells grown in luria bertani (LB) media at 37 °C until an OD600 of 0.6 was reached. The temperature was reduced to 20 °C and expression induced using 0.2 mM Isopropyl β-D-1-thiogalactopyranoside (IPTG). The cells were harvested after overnight incubation and resuspended in buffer A (20 mM HEPES pH 7.4, 100 mM NaCl, 5 mM Dithiothreitol (DTT)). The cells were lysed by sonication and the lysate cleared by centrifugation (50,000 x g, 4 °C, 1 hr). The protein was passed over 5ml of glutathione Sepharose 4B resin (GE Healthcare) at 4 °C. The resin was then washed with buffer A and the protein eluted with buffer A supplemented with 10 mM glutathione. The protein was then applied to a Superdex 200 26/60 gel filtration column (GE Healthcare) equilibrated in buffer […]
1.2 Isothermal Titration Calorimetry.
ATAD2 was exchanged into ITC buffer (50 mM HEPES pH7.4, 200 mM NaCl, 1 mM DTT).
ITC measurements were carried out at 25°C on a Microcal ITC 200 (Malvern Instruments Ltd, Malvern, UK). Compound 11 at 40mM, 2% DMSO was titrated into ATAD2 prepared in the cell at 150 μM, 2% DMSO. Titrations began with an initial 0.5 μL injection followed by 19x 2 μL injections of compound, with 120s spacing between each injection, and stirred at 1000 rpm throughout the experiment. Data were then analysed using Origin 7.0 (OriginLab Corp., Burlington, NC, USA) and fit with the one-set-of-sites model.
1.3 ATAD2-Histone displacement HTRF assay.
Compounds (dissolved to 100 mM in DMSO) were dispensed into black 384 well assay plates […]
as §1, §2, §3, §4
ATAD2N1064A was achieved using standard amine coupling on a CM5 chip surface. The surface was prepared through activation with EDC/NHS, followed by injection of 10 µg/ml of respective proteins until target level 8000 RU was reached. The surface was then quenched using 1 M Ethanolamine and washed with running buffer 10 mM HEPES, 150mM NaCl, 0.01% TWEEN20, 0.5 mM TCEP and 1% DMSO with a flow rate of […]. Compounds were injected in a dose-response manner (8 concentration points ranging from 0-200 µM) in series across the control, ATAD2, BRD4, and ATAD2-N1064A flow cells using solvent correction to account for bulk refractive index changes. The reference control channel was subtracted

ATAD2 bromodomain = target: T2, ATAD2 bromodomain (Homo sapiens, UniProt Q6PL18); experiment: Surface plasmon resonance (SPR) direct binding to ATAD2; details: for Kd: SPR format assay, Kd above the top concentration projected by extrapolation (extrapolated Rmax from control compound)
T2 construct: 981-1108; GST (N); made in house; host or cells: Escherichia coli BL21 (DE3) pLysS, plasmid pGEX-6P-1
T2 sequence (Q6PL18 981-1108): T1 sequence (Q6PL18 981-1108)
Procedure: as §9, §1, §2, §3, §4, §5, §6, §7, §8

Structure (SMILES) | Kd (BRD4) | ATAD2 inhibition in HTRF, in words [1] | ATAD2 binding by SPR, in words (ATAD2 bromodomain; SPR) | IC50 [1] | Kd (ATAD2 bromodomain) | binding constant towards ATAD2 relative to BRD4 (fold weaker) (ATAD2 bromodomain; SPR, ATAD2 Kd versus BRD4 Kd) | ATAD2 LE [1] | BRD4 binding by SPR, in words (BRD4; SPR) | selectivity between ATAD2 and BRD4, in words (BRD4; SPR, BRD4 versus ATAD2)
Cn1cc2c(cc1=O)C(C)(C)C(=O)N2 [Compound 7] | > 2000 µM | some inhibition was observed at the highest concentration assayed | bound too weakly to ATAD2 to allow Kd values to be calculated |  |  |  |  |  | 
CCN1C(=O)C(C)(C)c2cc(=O)n(C)cc21 [Compound 14a] | 12.7 µM | some inhibition was observed at the highest concentration assayed |  | > 1000 µM | > 200 µM | 100 fold |  |  | 
Cn1cc2c(cc1=O)C(C)(C)C(=O)N2Cc1ccccc1 [Compound 14b] | > 200 µM | sub-millimolar HTRF IC50 values |  | 810 ± 57 µM | > 2000 µM |  | 0.21 |  | 
Cn1cc2c(cc1=O)C(C)(C)C(=O)N2CCc1ccccc1 [Compound 14c] | > 200 µM | sub-millimolar HTRF IC50 values |  | 868 ± 33 µM | > 200 µM |  | 0.19 |  | 
Cn1cc2c(cc1=O)C(C)(C)C(=O)N2CCN1CCCC1 [Compound 14d] | > 200 µM |  |  | > 1000 µM | > 2000 µM |  |  |  | 
Cn1cc2c(cc1=O)C(C)(C)C(=O)N2CCN1CCOCC1 [Compound 14e] | > 2000 µM |  |  | > 1000 µM | > 2000 µM |  |  |  | 
Cn1cc2c(cc1=O)C(C)(C)C(=O)N2CCO [Compound 14g] | > 2000 µM |  |  | > 1000 µM | > 2000 µM |  |  |  | 
CC1(C)C(=O)Nc2cn(Cc3ccccc3)c(=O)cc21 [Compound 15c] | > 200 µM |  |  | > 1000 µM | > 200 µM |  |  |  | 
CN1C(=O)C(C)(C)c2cc(=O)n(C)cc21 [Compound 17a] | > 200 µM | some inhibition was observed at the highest concentration assayed | bound too weakly to ATAD2 to allow Kd values to be calculated | > 1000 µM | > 2000 µM |  |  | detectable binding to BRD4 | 
CCCn1cc2c(cc1=O)C(C)(C)C(=O)N2C [Compound 17b] | > 200 µM |  |  | > 1000 µM | > 2000 µM |  |  |  | 
CN1C(=O)C(C)(C)c2cc(=O)n(Cc3ccccc3)cc21 [Compound 17c] | 101 µM | sub-millimolar ATAD2 IC50 values |  | 681 ± 120 µM | > 200 µM |  | 0.21 |  | bound more tightly to BRD4 than to ATAD2
